In patent US9012413B2, “FGF receptor-activating N-acyl octasaccharides, preparation thereof, and therapeutic use thereof” (Sanofi, priority 2009, dated 2015):

Assays:
[1] = Pharmacokinetics after cutaneous administration to mice, plasma LC/MS-MS; assay type: in vivo; conditions: OF1 or C57/BL6 mice, 30 mg/kg, single administration
Method: The pharmacokinetic profile of the compounds according to the invention is evaluated after cutaneous administration, to OF1 or C57/BL6 mice, at a concentration of 30 mg/kg. The systemic exposure of the compounds is evaluated after a single administration to the animal anaesthetized beforehand with pentobarbital. The blood is collected from the vena cava and then transferred into plastic tubes containing lithium heparin. After centrifugation (2000×g for 10 minutes at 8° C.), the concentration of the compounds in the plasma is quantified by LC/MS-MS.

[2] = test system: BALB/c J mice; assay: Model of cellulose implant in mice (haemoglobin concentration in the implant, angiogenesis); assay type: in vivo
Method: This model is an adaptation of the model described by Andrade et al. (Microvascular Research, 1997, 54, 253-61) for testing pharmacological products capable of activating the onset of angiogenesis.
The animals (white consanguineous BALB/c J mice) are anaesthetized with a xylazine (Rompun®, 10 mg/kg)/ketamine (Imalgene® 1000, 100 mg/kg) mixture intraperitoneally. The animal's back is shaved and disinfected with Hexomedine®. An air pocket is created subcutaneously on the mouse's back by injecting 5 ml of sterile air. An incision of about 2 cm at the top of the animal's back is made in order to introduce a sterile cellulose implant (disk 1 cm in diameter, 2 mm thick, Cellspon® ref. 0501) impregnated with 50 μl of sterile solution containing the test product. […]
Seven days after inserting the sponge, the mice are sacrificed by means of a lethal dose of pentobarbital sodium (CEVA Santé Animale), administered intraperitoneally. […] On the day of the assay, the tubes are again centrifuged after thawing and the haemoglobin concentration is measured with the Drabkin reagent (Sigma, volume for volume) by reading on a spectrophotometer at 405 nm against a standard range of bovine haemoglobin (Sigma).
The haemoglobin concentration in each sample is expressed in mg/ml from the polynomial regression produced from the range. The results are expressed as a mean value (±sem) for each group. […]

With “Methyl (sodium 2-O-sodium sulfonato-α-L-idopyranosyluronate)-(1→4)-(2-acetamido-2-deoxy-6-O-sodium sulfonato-α-D-glucopyranosyl)-[(1→4)-(sodium 2-O-sodium sulfonato-α-L-idopyranosyluronate)-(1→4)-(2-acetamido-2-deoxy-6-O-sodium sulfonato-α-D-glucopyranosyl)]2-(1→4)-(sodium 2-O-sodium sulfonato-α-L-idopyranosyluronate)-(1→4)-2-acetamido-2-deoxy-6-O-sodium sulfonato-α-D-glucopyranoside [Compound 7]” the “AUC (0-Clast)” value ([1]; plasma) was 22 000 ng · h/mL, the T1/2 ([1]; plasma) was 24 min and the “Plasma conc., t = 4 h” value ([1]; plasma at 4 hours) was 425 ng/mL. The “specific activity in the cellulose implant model (active at)” value ([2]; BALB/c J mice, subcutaneous cellulose implant, haemoglobin assay after seven days) was 15 ng/site and the “activity relative to the fully sulfated analogue (all —NH-acyl groups replaced with —NH—SO3— groups)” value ([2]; cellulose implant in mice) was “greater than 21%”.
